In patent publication US20240060131A1, “METHOD FOR IDENTIFYING AND/OR REGULATING SENESCENCE” (INSTITUTE OF ZOOLOGY, CHINESE ACADEMY OF SCIENCES, priority 2020, published 2024):

How the values were obtained:
WS hMPC = experiment: Ki67 and SA-β-gal staining of WS hMPC treated with retrovirus inhibitors; format: cell-based, human; conditions: WS hMPCs, 10 μM lamivudine (3TC), abacavir (0.2 μM), Raltegravir, vs DMSO solvent control
Procedure: Cells seeded on coverslip (Thermo Fisher Scientific) were washed by PBS, fixed in 4% paraformaldehyde (PFA), permeabilized in 0.4% Triton X-100, blocked by 10% donkey serum. The coverslip was incubated with primary antibody at 4° C. in blocking buffer, then incubated with secondary antibody at room temperature for 1 h. Nucleus was labelled by Hoechst 33342 (Invitrogen).
For treatment by endogenous viral reverse transcriptase inhibitor and integrase inhibitor, hMPCs were treated by […] abacavir, lamivudine (3TC) and Raltegravir, respectively, medium was replaced every 3 days, followed by new treatment. After treatment of two cell passages, cells were used for Ki67 immunofluorescence, SA-β-gal staining and RNA/DNA extraction.
Cells were fixed by a buffer containing 2% (w/v) formaldehyde and 0.2% (w/v) glutaraldehyde for 5 min, and treated by staining buffer containing 1 mg/mL X-gal at 37° C. overnight.
10 μM lamivudine (3TC), abacavir (0.2 μM) and Raltegravir were added to WS hMPC, respectively, incubated at 37° C., and fresh medium containing each drug was replaced every two days, solvents dissolving above-mentioned drug with DMSO added at a corresponding amount were used as control.
Above-mentioned cells were stained by Ki67 and SA-β-gal.

old mice [1] = experiment: Long-term intraperitoneal injection of Ratelgravir to old mice; format: in vivo, mouse; conditions: 16 weeks
Procedure: Ratelgravir was dissolved at 50 mg/ml in 30% PEG300+2% Tween80+2% DMSO, and intraperitoneally injected to mice at 18 months old, […] each time, twice a week (n=23). The weight, hollow back, hair, skin, cataract and activity score of mice were measured 8 weeks and 16 weeks after first injection, grip strength was measured and a survival curve was plotted.
(§1) Grip strength of the limbs was measured by Grip strength meter (Panlab Grip Strength Meter, LE902) in accordance with the manufacturer's instructions. In brief, mice were put on the top of grip strength meter and pulled along the grid at a constant rate, until mice loosened its grip. The peak tension in each of the 10 repeats was recorded, and the mean value was calculated as grip strength for each mouse.
The retrovirus integrase inhibitor Ratelgravir was dissolved in 30% PEG300+2% Tween80+2% DMSO at a concentration of 50 mg/ml, mice at 18 months old was injected intraperitoneally, […], 200 μl/injection, twice a week (as shown by FIG. 34A).

cGAS-STING pathway = experiment: cGAS-STING innate immune pathway and SASP in hMPCs (Western blot, RT-qPCR); format: cell-based, human; conditions: knockdown in HGPS and WS hMPCs
Procedure: Cells were lysed in 1×SDS buffer (100 mM Tris-HCl, pH 6.8, 10% glycerol, 2% SDS and 2%2-mercaptoethanol), boiled for 10 min at 105° C. Protein concentration was measured by BCA kit. Cell lysate was subjected to SDS-PAGE electrophoresis, then transferred to PVDF membrane (Millipore). The membrane was incubated with primary antibody, incubated with secondary antibody conjugated to HRP after washing, then blotted with substrate, the substrate was the mixture of 1000 μL substrate A and 3 μL substrate B (substrate A: 0.2 mM cumaric acid, 1.25 mM luminal, 0.1 M Tris-HCl, pH 8.5; substrate B: 3% H2O2) or Super Signal West Femto Maximum Sensitivity Substrate (Thermo Fisher Scientific). Images were taken by Image Lab software. Quantification was conducted by ImageJ.
In accordance with the manufacturer's instructions, total RNA of cell was extracted by TRIzol (Thermo Fisher Scientific); reverse transcribed into cDNA with GoScript reverse transcription system (Promega) for RT-qPCR; RT-qPCR was conducted with THUNDERBIRD qPCR Mix (TOYOBO) and CFX384 real-time system (Bio-Rad Laboratories, Inc.).
To further study the activation of cGAS-STING DNA sensing pathway, the following key characteristics in different senescent hMPCs (including RS, HGPS and WS) and fibroblasts were detected: […] TANK binding kinase 1 (TBK1) and IFN regulating factor 3 (IRF3) as well as proinflammatory cytokines (e.g., IL1B andIL6), these factors were regarded as SASP factors.

HERVK = HERVK transposition events (reporter, flow cytometry) and DNA copy number in WS hMPC; format: cell-based, human; conditions: 10 days after incubation
Procedure: The experiment for detecting DNA of HERVK gene by single molecule DNA-FISH was conducted by the National Key Laboratory of Agricultural Microbiology, Huazhong Agricultural University. Senescent cells were successively treated by RNase A (100 μg/mL, dissolved in 2×SSC) at 37° C. for 1 h, treated by 70% formamide dissolved in 2×SSC at 72° C. for 10 min, treated by precooled ethanol (concentration from 80%, 90% to 100%, each treatment for 1 min). Then cells were incubated with HERVK […] specific probe pairs (each probe 10 μM) in hybridization solution (10% deionized formamide, 2×SSC, 10% dextran sulfate and 2 mM VRC) at 42° C. overnight. Washed 3 times by washing buffer (2×SSC, 30% formamide, 0.1% Triton-X 100 and 2 mM VRC), cells were incubated with amplification probes (SFSP-001 and SFTP-001, Spatial FISH, Co., Ltd.) and fluorescent probes (SFFP-001, Spatial FISH, Co., Ltd) together, HERVK DNA was subjected to single molecule detection. Finally, cells were counterstained by DAPI and imaged by confocal microscope.
In brief, to assess transposition events occurred in HERVK during aging process, wild type mesenchymal stem cells of early passage and late passage (P7 generation and P14 generation) were transfected with HERVK reporter plasmid, and meanwhile co-transfected with dsRed, a vector expressing red fluorescence (obtained from Xu Xingzhi's Laboratory, School of Basic Medicine, Shenzhen University) to calculate transfection probability. After the confluence of cells, cells were digested into single cell, and resuspended by PBS, analyzed by flow cytometer BD Influx, the ratio of cells positive for green fluorescence to cells positive for red fluorescence was the probability of transposition events occurred in HERVK.
To construct HERVK transposition reporter vector, first, above-mentioned HERVK fragment was cloned to dsRed vector having KpnI enzyme site mutant (obtained from Xu Xingzhi's Laboratory, School of Basic Medicine, Shenzhen University). GFP reporter (SEQ ID NO: 152) was obtained by PCR amplification from L 1 reporter (gifted by Prof. Wang Jichang, Sun Yat-sen University in Guangzhou, China), GFP reporter was inserted to dsRed-HERVK through KpnI site, contructing HERVK transposition reporter vector.
To assess transposition events occurred for HERVK during aging process, cells of early and late generations were transfected with HERVK reporter plasmid, and meanwhile co-transfected with a vector expressing red fluorescence to calculate transfection probability. After confluence of cells, cells were digested into single cell, and resuspended with PBS, analyzed by flow cytometer BD Influx, the ratio of cells positive for green fluorescence to cells positive for red fluorescence was the probability of transposition events occurred in HERVK. […]

old mice [2] = experiment: Abacavir injected to articular cavity of old mice (joint aging); format: in vivo, mouse
Procedure: 10 μl Abacavir (in PBS with 2% DMSO) at the concentration of 10 mg/ml was injected to knee joint cavities of mice of 22 months old (n=12), injected once a week. Grip strength test was performed 4 weeks, 8 weeks and 12 weeks after the first injection. Motor coordination and balance, motor ability and Micro-CT were performed 14 weeks after the first injection, samples were taken, i.e., joints of mice hind limbs were taken out, one was frozen in liquid nitrogen and the other was fixed in 4% PFA.
as §1
Mice were placed on a running machine (SANS Bio Instrument, SA101) to test the motor ability of mice in accordance with the manufacturer's instructions. In particular, slope of runway was set as 5°, electrical stimulation was 2 mA, the running speed was set as follows: an initial velocity of 5 m/min for 5 min; then accelerating to final velocity of 25 m/min with an accelerated rate of 1 m/min 2, 20 mins in total. First, mice were trained for three consecutive days, and tested on the fourth day. The times of electrical stimulation, and the run distance in […] were recorded.
Micro-CT (PE Quantum FX) was performed in accordance with the manufacturer's instructions. In brief, mice were anesthetized and placed in the instrument, scanning parameters for Micro-CT were voltage 50Kvp, power 40 W, 6-frame superposition, field 4 cm×4 cm. Three-dimensional images were screenshot after scan and reconstruction, and bone density was calculated by Ansys software.
5.2. Retrovirus inhibitor Abacavir delayed joint aging of old mice Retrovirus inhibitor Abacavir was injected to articular cavity of old mice (23 months old), concentration was 10 mg/ml, once a week, 10 μl every time (as shown by FIG. 32A). (n=10)

old mice [3] = experiment: Long-term oral administration of Abacavir in drinking water to old mice; format: in vivo, mouse; conditions: for mice died: n=23
Procedure: Abacavir was dissolved in drinking water containing 0.4% DMSO at 2 mg/ml, mice of 18 months old were administered by feeding the water daily (n=23). The weight, hollow back, hair, skin, eye (cataract) and activity score of mice were measured 6 weeks, 12 weeks and 24 weeks after administration, grip strength was measured and a survival curve was plotted. […]
as §1
Mice were placed in the end of any arm of Y maze (trisection radiation maze, consisting of 3 arms with equal length (50 cm×18 cm×35 cm), the intersection angle between every two arms was 120 degree), allowed to explore freely for 5 min, animal behavior changes in 5 min were recorded by camera system, and the short-term spatial memory ability of mice was detected by recording the total times that the mice entered the arms and the rotations that the mice entered in turn the three arms of the Y maze.
Retrovirus inhibitor Abacavir was dissolved in drinking water for mice (containing 0.3% DMSO) at a concentration of 2 mg/ml (n=23), and mice of 18 months old was administered daily (as shown by FIG. 33A).

[4] = articular cavity injection, P value not significant
[5] = drinking water 2 mg/ml, 24 weeks
[6] = drinking water 2 mg/ml, 30 weeks

Cc1nnc(C(=O)NC(C)(C)c2nc(C(=O)NCc3ccc(F)cc3)c(O)c(=O)n2C)o1 [Raltegravir]
Ki67 positive cells (WS hMPC): significantly were increased | SA-β-gal positive cells (WS hMPC): significantly were decreased | Ki67 positive cells (WS hMPC; listed as Ratelgravir): increase | SA-β-gal positive cells (WS hMPC; listed as Ratelgravir): reduce | condition of hair (old mice [1]; i.p. twice a week): improve | condition of hollow back (old mice [1]; i.p. twice a week): improve | limb tension of mice (old mice [1]; mice at 18 months old, 50 mg/ml, 200 μl i.p. twice a week, vs vehicle): significantly was increased

shSTING-2 (guide GCCCGGATTCGAACTTACAAT; chemistry not given here)
SASP (cGAS-STING pathway): alleviated | cell senescence (cGAS-STING pathway): alleviated | phosphorylation level of IRF3 (cGAS-STING pathway): reduced | phosphorylation level of RelA (cGAS-STING pathway): reduced | phosphorylation level of TBK1 (cGAS-STING pathway): reduced

Nc1nc(NC2CC2)c2ncn([C@H]3C=C[C@@H](CO)C3)c2n1 [Abacavir, abacavir]
Ki67 positive cells (WS hMPC): increase | SA-β-gal positive cells (WS hMPC): reduce | Ki67 positive cells (WS hMPC; listed as abacavir): significantly were increased | SA-β-gal positive cells (WS hMPC; listed as abacavir): significantly were decreased | HERVK DNA copy number (HERVK): decreases | HERVK transposition events (HERVK): reduces | HERVK DNA copy number (HERVK; listed as abacavir): effectively reduce | HERVK transposition events (HERVK; listed as abacavir): effectively reduce | bone density of joint (old mice [2]; 15 weeks after injecting): increased | expression of senescence-associated protein p21 in joint (old mice [2]; RT-qPCR of joint RNA): decreased | level of inflammatory factor IL1B in joint (old mice [2]; RT-qPCR of joint RNA): decreased | level of inflammatory factor IL6 in joint (old mice [2]; RT-qPCR of joint RNA): decreased | forced treadmill running distance (old mice [2]; [4]): improve | forced treadmill running time (old mice [2]; [4]): improve | forced treadmill shocked time (old mice [2]; articular cavity injection, trend, P value not significant): reduce | limb tension of mice (old mice [2]; old mice (23 months old), articular cavity 10 mg/ml, 10 μl once a week, 8 weeks after injecting, vs vehicle): significantly was enhanced | mice died (old mice [3]; 24 weeks after administering, control group 2 died): 0 | mice died (old mice [3]; 30 weeks after administering, control group 4 died): 1 | spatial short-term memory ability (old mice [3]; Y Maze, 30 weeks): enhanced | condition of hair (old mice [3]; [5]): improve | condition of hollow back (old mice [3]; [5]): improve | mobility ability of mice (old mice [3]; [5]): enhance | Y Maze rotations that the mice entered in turn the three arms (old mice [3]; [6]): increased | Y Maze total times that the mice entered the arms (old mice [3]; [6]): increased | survival rate of old mice (old mice [3]; drinking water 2 mg/ml, up to 30 weeks): improve | limb tension of mice (old mice [3]; mice of 18 months old, 2 mg/ml in drinking water daily, 12 weeks): significantly enhanced
